Type: physicochemical
Conditions: 2-propanol/water systems

| Compound | stabilizing properties (in words) |
| --- | --- |
| C1=CC2C3C=CC(C3)C2C1 (centres unmarked) [dicylopentadiene] | failed to show any stabilizing properties |
| C1=Cc2ccccc2C1 [indene] | failed to show any stabilizing properties |

Reference: US5160526A, “Alkene stabilizers for 3-isothiazolone compounds” (priority 1991, dated 1992)
